According to the NIST ThermoML archive (doi:10.1021/acs.jced.6b00430):

Assay: xn = mol fraction of the nth substance listed
Details: 100 kPa, Liquid; for electrical conductivity: Alternating current cell with electrodes; for viscosity: Concentric cylinders viscometry; for mass density: Vibrating tube method

O=[PH](O)O [phosphonic acid] + CN(C)C=O
Details | electrical conductivity [S/m] | mass density [kg/m3] | viscosity [mPa·s]
298.15 K, x1 = 0.0911 | – | 992.53 | –
298.15 K, x1 = 0.1181 | 0.0572 | – | –
298.15 K, x1 = 0.1365 | – | 1016.46 | –
298.15 K, x1 = 0.1798 | – | 1040.55 | –
298.15 K, x1 = 0.1829 | – | 1041.85 | –
298.15 K, x1 = 0.1973 | – | – | 2.92
298.15 K, x1 = 0.2293 | – | 1069.29 | –
298.15 K, x1 = 0.2507 | – | – | 4.75
298.15 K, x1 = 0.291 | – | 1104.79 | –
298.15 K, x1 = 0.2984 | 0.0925 | – | 7.07
298.15 K, x1 = 0.3115 | – | – | 7.88
298.15 K, x1 = 0.3298 | 0.0934 | 1129.74 | –
298.15 K, x1 = 0.3442 | – | 1137.78 | –
298.15 K, x1 = 0.3491 | – | – | 11.5
298.15 K, x1 = 0.3712 | – | 1154.77 | –
298.15 K, x1 = 0.3937 | – | 1169.25 | –
298.15 K, x1 = 0.3968 | 0.129 | – | 17.6
298.15 K, x1 = 0.3988 | – | – | 17.8
298.15 K, x1 = 0.4107 | – | 1182.13 | 20.7
298.15 K, x1 = 0.421 | – | 1188.34 | –
298.15 K, x1 = 0.4479 | 0.141 | 1207.13 | 28.7
298.15 K, x1 = 0.4707 | – | 1221.83 | –
298.15 K, x1 = 0.493 | – | 1235.89 | –
298.15 K, x1 = 0.4968 | – | – | 41.6
298.15 K, x1 = 0.5074 | – | 1244.77 | 43.9
298.15 K, x1 = 0.5196 | – | 1255.1 | –
298.15 K, x1 = 0.5429 | – | 1270.6 | –
298.15 K, x1 = 0.5503 | – | – | 62.4
298.15 K, x1 = 0.5724 | – | 1292.1 | –
298.15 K, x1 = 0.5761 | 0.216 | – | 73.5
298.15 K, x1 = 0.5925 | – | 1306.05 | –
298.15 K, x1 = 0.5993 | – | – | 80.5
298.15 K, x1 = 0.6245 | – | 1328.62 | –
298.15 K, x1 = 0.6261 | – | – | 90
298.15 K, x1 = 0.6316 | 0.294 | – | 95.2
298.15 K, x1 = 0.6478 | – | – | 102.8
298.15 K, x1 = 0.6554 | 0.333 | 1355.76 | 103.3
298.15 K, x1 = 0.6753 | – | 1364.54 | –
298.15 K, x1 = 0.682 | 0.411 | – | 113.5
298.15 K, x1 = 0.6923 | – | 1378.85 | –
298.15 K, x1 = 0.7142 | – | 1399.02 | 122.7
298.15 K, x1 = 0.725 | – | 1401.52 | –
298.15 K, x1 = 0.7592 | – | 1432.85 | –
298.15 K, x1 = 0.7694 | 0.663 | 1444 | 139.8
298.15 K, x1 = 0.7832 | 0.702 | – | 142.5
298.15 K, x1 = 0.7845 | – | 1450.65 | –
308.15 K, x1 = 0.0911 | – | 983.17 | –
308.15 K, x1 = 0.1181 | 0.0647 | – | –
308.15 K, x1 = 0.1365 | – | 1007.16 | –
308.15 K, x1 = 0.1798 | – | 1031.35 | –
308.15 K, x1 = 0.1829 | – | 1032.63 | –
308.15 K, x1 = 0.1973 | – | – | 2.49
308.15 K, x1 = 0.2293 | – | 1060.16 | –
308.15 K, x1 = 0.2507 | – | – | 3.92
308.15 K, x1 = 0.291 | – | 1095.72 | –
308.15 K, x1 = 0.2984 | 0.116 | – | 5.72
308.15 K, x1 = 0.3115 | – | – | 6.3
308.15 K, x1 = 0.3298 | 0.119 | 1120.73 | –
308.15 K, x1 = 0.3442 | – | 1128.83 | –
308.15 K, x1 = 0.3491 | – | – | 9.06
308.15 K, x1 = 0.3712 | – | 1145.98 | –
308.15 K, x1 = 0.3937 | – | 1160.41 | –
308.15 K, x1 = 0.3968 | 0.169 | – | 13.3
308.15 K, x1 = 0.3988 | – | – | 14
308.15 K, x1 = 0.4107 | – | 1173.31 | 15.4
308.15 K, x1 = 0.421 | – | 1179.34 | –
308.15 K, x1 = 0.4479 | 0.19 | 1198.35 | 20.9
308.15 K, x1 = 0.4707 | – | 1213.06 | –
308.15 K, x1 = 0.493 | – | 1227.23 | –
308.15 K, x1 = 0.4968 | – | – | 29.2
308.15 K, x1 = 0.5074 | – | 1236.13 | 30.3
308.15 K, x1 = 0.5196 | – | 1246.49 | –
308.15 K, x1 = 0.5429 | – | 1262.02 | –
308.15 K, x1 = 0.5503 | – | – | 42.4
308.15 K, x1 = 0.5724 | – | 1283.54 | –
308.15 K, x1 = 0.5761 | 0.301 | – | 48.6
308.15 K, x1 = 0.5925 | – | 1297.57 | –
308.15 K, x1 = 0.5993 | – | – | 51
308.15 K, x1 = 0.6245 | – | 1320.2 | –
308.15 K, x1 = 0.6261 | – | – | 59.4
308.15 K, x1 = 0.6316 | 0.41 | – | 61.2
308.15 K, x1 = 0.6478 | – | – | 64.5
308.15 K, x1 = 0.6554 | 0.476 | 1347.39 | 66.1
308.15 K, x1 = 0.6753 | – | 1356.23 | –
308.15 K, x1 = 0.682 | 0.589 | – | 72.4
308.15 K, x1 = 0.6923 | – | 1370.56 | –
308.15 K, x1 = 0.7142 | – | 1390.77 | 78.3
308.15 K, x1 = 0.725 | – | 1393.35 | –
308.15 K, x1 = 0.7592 | – | 1424.69 | –
308.15 K, x1 = 0.7694 | 0.959 | 1435.87 | 87.4
308.15 K, x1 = 0.7832 | 1.02 | – | 88.2
308.15 K, x1 = 0.7845 | – | 1442.56 | –
318.15 K, x1 = 0.0911 | – | 973.7 | –
318.15 K, x1 = 0.1181 | 0.0725 | – | –
318.15 K, x1 = 0.1365 | – | 997.83 | –
318.15 K, x1 = 0.1798 | – | 1022.15 | –
318.15 K, x1 = 0.1829 | – | 1023.41 | –
318.15 K, x1 = 0.1973 | – | – | 2.16
318.15 K, x1 = 0.2293 | – | 1051.04 | –
318.15 K, x1 = 0.2507 | – | – | 3.35
318.15 K, x1 = 0.291 | – | 1086.67 | –
318.15 K, x1 = 0.2984 | 0.142 | – | 4.77
318.15 K, x1 = 0.3115 | – | – | 5.21
318.15 K, x1 = 0.3298 | 0.148 | 1111.75 | –
318.15 K, x1 = 0.3442 | – | 1119.89 | –
318.15 K, x1 = 0.3491 | – | – | 7.26
318.15 K, x1 = 0.3712 | – | 1137.21 | –
318.15 K, x1 = 0.3937 | – | 1151.58 | –
318.15 K, x1 = 0.3968 | 0.217 | – | 10.5
318.15 K, x1 = 0.3988 | – | – | 10.6
318.15 K, x1 = 0.4107 | – | 1164.51 | 12
318.15 K, x1 = 0.4479 | 0.25 | – | 15.8
318.15 K, x1 = 0.4968 | – | – | 21.2
318.15 K, x1 = 0.5074 | – | – | 22.2
318.15 K, x1 = 0.5503 | – | – | 30
318.15 K, x1 = 0.5761 | 0.397 | – | 34.1
318.15 K, x1 = 0.5993 | – | – | 35.2
318.15 K, x1 = 0.6261 | – | – | 41.2
318.15 K, x1 = 0.6316 | 0.548 | – | 42
318.15 K, x1 = 0.6478 | – | – | 43.6
318.15 K, x1 = 0.6554 | 0.626 | – | 45
318.15 K, x1 = 0.682 | 0.81 | – | 49
318.15 K, x1 = 0.7142 | – | – | 51.4
318.15 K, x1 = 0.7694 | 1.33 | – | 57.3
318.15 K, x1 = 0.7832 | 1.41 | – | 58.4
